{
  "source": "patent EP1528931B1",
  "about": "“DIPEPTIDYL PEPTIDASE IV INHIBITORS FOR DECREASING THE RATE OF CHRONIC WEIGHT GAIN” (Prosidion Ltd., priority 2002, dated 2004)",
  "key": {"[1]": {"target": "human plasma containing DP IV-activity (Homo sapiens, UniProt P27487)", "sequence (P27487 39-766 limits assumed)": "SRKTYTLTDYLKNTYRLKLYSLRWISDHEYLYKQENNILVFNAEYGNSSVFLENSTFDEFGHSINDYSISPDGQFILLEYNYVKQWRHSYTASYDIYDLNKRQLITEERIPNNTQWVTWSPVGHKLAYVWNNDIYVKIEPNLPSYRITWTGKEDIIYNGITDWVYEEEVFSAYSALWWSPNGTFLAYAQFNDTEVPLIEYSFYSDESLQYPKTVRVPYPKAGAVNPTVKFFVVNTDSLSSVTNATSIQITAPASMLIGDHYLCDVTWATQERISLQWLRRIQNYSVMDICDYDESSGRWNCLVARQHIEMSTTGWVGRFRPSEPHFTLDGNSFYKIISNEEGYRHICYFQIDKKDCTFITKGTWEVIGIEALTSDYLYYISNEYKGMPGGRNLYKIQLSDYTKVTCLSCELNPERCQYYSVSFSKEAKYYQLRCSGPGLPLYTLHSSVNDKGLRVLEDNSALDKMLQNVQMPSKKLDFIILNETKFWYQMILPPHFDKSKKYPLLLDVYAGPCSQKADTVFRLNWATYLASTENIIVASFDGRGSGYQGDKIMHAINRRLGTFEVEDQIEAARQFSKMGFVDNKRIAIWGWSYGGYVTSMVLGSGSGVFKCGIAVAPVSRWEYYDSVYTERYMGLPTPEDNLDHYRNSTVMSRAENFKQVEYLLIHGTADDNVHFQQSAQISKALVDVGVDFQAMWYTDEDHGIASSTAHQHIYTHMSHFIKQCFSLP", "experiment": "Proteolytic processing of peptides in human plasma with or without P32/98, MALDI-TOF", "conditions": "human EDTA-plasma with 9.8 µMol/l isoleucyl thiazolidine hemifumarate", "description": "Matrix-assisted laser desorption/ionisation mass spectrometry was carried out using the Hewlett-Packard G2025 LD-TOF System with a linear tune of flight analyzer. […] The spectrometer was calibrated externally. […] Samples of the reaction mixtures were removed at various time intervals and mixed with equal volumes of the matrix solution. By mixing assay sample and matrix, the low pH of the matrix solution stopped the enzymatic reaction. A small volume (< 1 µl) of this mixture was transferred to a probe tip and immediately evaporated in a Hewlett-Packard G2024A Sample Prep Accessory to ensure rapid and homogenous sample crystallization. All spectra were generated using automatic mode by averaging 250 single shots selected by the signal-to-noise ratio.\nThe DP IV used in this study was purified from porcine kidney. […] In the case of plasma, fresh prepared human EDTA-plasma from healthy subjects was used. […] Capillary zone electrophoresis (CZE) investigations were carried out using a system from Beckman. Peptides and enzymes were incubated in the capillary electrophoresis system at 37°C using a 20 mM phosphate buffer pH7.4. Decrease of substrate was determined by subsequent measurements of the same sample. Separation was carried out using a 0.1 M phosphate buffer pH 2.5, a 50 µm * 30 cm fused silica capillary and 16 kV constant voltage. Peptides were detected at 200 nm. Substrate concentrations were calculated from the height of the peptide peaks, For determination of kinetic constants the degradation velocity from at least 4 substrate concentrations were determined and fitted according the Michaelis-Menten equation using Graphit 4.0."}, "porcine DP IV": {"target": "T1, porcine DP IV (Sus scrofa, UniProt P22411)", "T1 construct": "from tissue; host or cells: porcine kidney", "T1 sequence (P22411 whole entry)": "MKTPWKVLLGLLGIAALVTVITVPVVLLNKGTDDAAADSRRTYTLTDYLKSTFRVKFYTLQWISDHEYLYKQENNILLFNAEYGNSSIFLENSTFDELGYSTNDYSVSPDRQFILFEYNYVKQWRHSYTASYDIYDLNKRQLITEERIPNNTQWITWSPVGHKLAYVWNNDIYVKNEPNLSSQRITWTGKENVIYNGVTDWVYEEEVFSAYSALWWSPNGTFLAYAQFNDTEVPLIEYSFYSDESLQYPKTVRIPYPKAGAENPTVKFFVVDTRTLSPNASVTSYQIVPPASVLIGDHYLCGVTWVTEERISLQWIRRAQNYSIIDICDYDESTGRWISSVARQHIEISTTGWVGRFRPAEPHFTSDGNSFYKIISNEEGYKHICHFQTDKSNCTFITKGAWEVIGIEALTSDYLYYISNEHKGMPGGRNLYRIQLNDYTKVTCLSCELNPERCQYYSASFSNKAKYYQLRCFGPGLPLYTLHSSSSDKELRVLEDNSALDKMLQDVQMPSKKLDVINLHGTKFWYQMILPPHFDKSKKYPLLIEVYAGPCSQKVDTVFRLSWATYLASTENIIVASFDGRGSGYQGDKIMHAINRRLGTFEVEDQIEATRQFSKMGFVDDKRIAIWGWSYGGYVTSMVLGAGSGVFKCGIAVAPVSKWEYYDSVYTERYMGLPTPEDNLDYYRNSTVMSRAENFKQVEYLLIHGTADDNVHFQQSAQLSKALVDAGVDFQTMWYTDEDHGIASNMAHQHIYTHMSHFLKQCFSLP", "experiment": "Kinetic constants of peptide degradation by DP IV, capillary zone electrophoresis (CZE)", "assay_type": "biochemical", "conditions": "37°C, phosphate buffer pH7.4, read-out: Cleavage, porcine DP IV, Km", "quoted_text": "The DP IV used in this study was purified from porcine kidney. The specific activity measured using Gly-Pro-4-nitroanilide as a chromogenic substrate was at least 5 units/mg. […] Capillary zone electrophoresis (CZE) investigations were carried out using a system from Beckman. Peptides and enzymes were incubated in the capillary electrophoresis system at 37°C using a 20 mM phosphate buffer pH7.4. Decrease of substrate was determined by subsequent measurements of the same sample. Separation was carried out using a 0.1 M phosphate buffer pH 2.5, a 50 µm * 30 cm fused silica capillary and 16 kV constant voltage. Peptides were detected at 200 nm. Substrate concentrations were calculated from the height of the peptide peaks, For determination of kinetic constants the degradation velocity from at least 4 substrate concentrations were determined and fitted according the Michaelis-Menten equation using Graphit 4.0."}, "[2]": {"system": "human plasma containing DP IV-activity", "experiment": "Proteolytic processing of peptides in human plasma with or without P32/98, MALDI-TOF", "assay_type": "in vitro ADME", "conditions": "inhibitor 9.8 µMol/l", "source_text": "The instrument was equipped with a 337 nm nitrogen laser, a potential acceleration source (5 kV) and a 1.0 m flight tube. […] The spectrometer was calibrated externally.\nPeptides were detected at 200 nm."}, "Male Zucker fa/fa rats [3]": {"system": "Male Zucker fa/fa rats", "experiment": "OGTT on day 21 of repeated dosing", "assay_type": "in vivo, rat", "description": "OGTT: A final OGTT was performed on day 21 with blood sampling from the tail vein. Blood samples from the tail vein were taken at-12 h (the night before day 21), at 0 min (immediately before the beginning of OGTT), at 10, 20, 30, 40, 50, 60, 80, 100 and 120 min. Blood samples were taken in 20 µl glass capillaries for blood glucose measurements and in Eppendorf tubes (100 µl). The latter were immediately centrifuged and the plasma fractions were stored at-20°C for insulin analysis.\n(§1) Blood glucose: Glucose levels were measured using the glucose oxidase procedure (Super G Glukosemeßgerät; Dr. Müller Gerätebau, Freital, Germany).\n(§2) Plasma insulin: Insulin concentrations were assayed by the antibody RIA method (LINCO Research, Inc. St Charles, Mo., USA)."}, "Male Zucker fa/fa rats [4]": {"system": "Male Zucker fa/fa rats", "experiment": "Repeated once-daily dosing for 21 days: morning values and day-night profile of blood glucose and plasma insulin", "assay_type": "in vivo, rat", "description": "The parameters monitored were morning blood glucose and plasma insulin levels. In a day-night profile, glycemia and insulinaemia were monitored from day 16 to day 17. An OGTT was performed finally on day 21 to monitor blood glucose and plasma insulin kinetics to assess changes in glucose tolerance. Glibenclamide (DAB 1996; R011150/33372) was donated by Berlin-Chemie (Berlin, Germany). Male Zucker (fa/fa) rats of the body Weight class of 300g were purchased from Charles River (Sulzfeld, Germany).\nHousing Conditions: Animals were kept single-housed under conventional conditions with controlled temperature (22±2 °C) on a 12/12 hours light/dark cycle (light on at 06:00 a.m.). Standard pellets (ssniff®, Soest, Germany) and tap water acidified with HCl were allowed ad libitum.\nCatheterization of Carotid Artery: After one week of adaptation carotid catheters were implanted in the rats under general anesthesia (injection of 0.25 ml/kg i.p. Rompun® [2%], Bayer, Germany) and 0.5 ml/kg i.p. Velonarkon® (Arzneimittelwerk Dresden, Germany). The animals were allowed to recover for one week. The catheter was flushed with heparin-saline (104 IU/ml) three times per week.\nThereafter, the non-diabetic Wistar rats were treated orally once daily with RP (5 mg/kg b.w.) or TP (21.51 mg/kg b.w.) and the diabetic Zucker rats were treated orally once daily with RP (1 mg/kg b.w.) or TP (21.61 mg/kg b.w.) for 21 days at 05.00 p.m. (before regular food intake in the dark phase). The controls were given 1% cellulose solution orally (5 ml/kg). Blood samples were taken every morning at 07.30 a.m. from tail veins for measurement of blood glucose and plasma insulin. The last blood samples of this part of the program were taken at 07.30 a.m. on the 15th day to measure blood glucose and plasma insulin. The oral drug therapy was continued for one week. Recording the day-night profile under the above therapy blood glucose (Δt ≡ 3 h) and plasma insulin (Δt = 3-6 h) wore monitored from day 16 (at b5.40 p.m. beginning) to day 17 (at 02.00 p.m. end).\nas §1, §2"}},
  "note": "Values joined by “and” are separate entries in the source; they are usually repeats but may differ in a detail not shown here. Equal entries are not always repeated. Ends that are not written are not given here.",
  "data": [
    {"compound": "Peptide histidin methionine [Peptide histidin methionine (PHM)]", "values": [
      {"measurement": "Cleavage, human plasma +P32/98", "setting": "[1]", "result": "ø"},
      {"measurement": "Km", "setting": "porcine DP IV", "result": 35, "unit": "µM"}
    ]},
    {"compound": "Cholecystokinin [Cholecystokinin (CCK21)]", "values": [
      {"measurement": "Cleavage, human plasma +P32/98", "setting": "[1]", "result": "slow unspecific degradation by aminopeptidases and ø"}
    ]},
    {"compound": "Somatostatin 28", "values": [
      {"measurement": "Km", "setting": "porcine DP IV", "result": 6, "unit": "µM"}
    ]},
    {"compound": "Di-[2S,3S]-2-Amino-3-methyl-pentanoic-1,3-thiazolidine fumarate [P32/98]", "values": [
      {"measurement": "Hydrolysis of gastrointestinal peptides in human plasma", "setting": "[2]", "result": "blocked"}
    ]},
    {"compound": "Secretin", "values": [
      {"measurement": "Cleavage, human plasma +P32/98", "setting": "[1]", "result": "ø"}
    ]},
    {"compound": "Gastrin releasing peptide (VPLPAGGGTVLTKMYPRGNHWAVGHLM; ends and bridges not checked; UniProt P07492 24-50, looked up) [Gastrin releasing peptide (GRP)]", "values": [
      {"measurement": "Cleavage, human plasma +P32/98", "setting": "[1]", "result": "ø"}
    ]},
    {"compound": "COc1ccc(Cl)cc1C(=O)NCCc1ccc(S(=O)(=O)NC(=O)NC2CCCCC2)cc1", "note": "[glibenclamide]", "values": [
      {"measurement": "Glycemia at last drug application before overnight fasting", "setting": "Male Zucker fa/fa rats [3]; 05.00 p.m., night before day 21", "result": "8.81 ± 1.21", "unit": "mmol/L"},
      {"measurement": "Blood glucose increase after the glucose load", "setting": "Male Zucker fa/fa rats [3]; OGTT day 21", "result": "about 11 mmol/l"},
      {"measurement": "glucose area under the curve (G-AUC0-120 min)", "setting": "Male Zucker fa/fa rats [3]; OGTT day 21", "result": "1096 ± 76", "unit": "mmol·min/L"},
      {"measurement": "Glycemia after overnight fasting (basal, before OGTT)", "setting": "Male Zucker fa/fa rats [3]; day 21, 07.30 a.m.", "result": "4.91 ± 0.37", "unit": "mmol/L"},
      {"measurement": "OGTT blood glucose", "setting": "Male Zucker fa/fa rats [3]; day 21, 50 min", "result": "16.33 ± 0.98", "unit": "mmol/L"},
      {"measurement": "OGTT blood glucose", "setting": "Male Zucker fa/fa rats [3]; day 21, 80 min", "result": "16.24 ± 1.09", "unit": "mmol/L"},
      {"measurement": "OGTT blood glucose", "setting": "Male Zucker fa/fa rats [3]; day 21, 100 min", "result": "15.13 ± 0.76", "unit": "mmol/L"},
      {"measurement": "OGTT blood glucose", "setting": "Male Zucker fa/fa rats [3]; day 21, 120 min", "result": "14.81 ± 0.66", "unit": "mmol/L"},
      {"measurement": "Fasting plasma insulin at the beginning of the OGTT", "setting": "Male Zucker fa/fa rats [3]; day 21, overnight fasting, listed as RP", "result": "11.8±1.5 ng/ml and ~ 12.5 ng/ml"},
      {"measurement": "Day-night profile: mean blood glucose", "setting": "Male Zucker fa/fa rats [4]; Zucker rats, 02.00 p.m. next day", "result": "7.34 ± 0.77", "unit": "mmol/L"},
      {"measurement": "Day-night profile: plasma insulin", "setting": "Male Zucker fa/fa rats [4]; Zucker rats, 02.00 p.m. the next day", "result": "58.3 ± 7.3", "unit": "ng/mL"},
      {"measurement": "Day-night profile: plasma insulin", "setting": "Male Zucker fa/fa rats [4]; Zucker rats, day 16, 05.00 p.m.", "result": "50.0 ± 8.2", "unit": "ng/mL"},
      {"measurement": "Day-night profile: mean blood glucose", "setting": "Male Zucker fa/fa rats [4]; Zucker rats, day 16, 05.00 p.m., RP 1 mg/kg or TP 21.61 mg/kg orally once daily", "result": "7.96 ± 1.13", "unit": "mmol/L"},
      {"measurement": "Day-night profile: plasma insulin", "setting": "Male Zucker fa/fa rats [4]; Zucker rats, day 16, 08.00 p.m.", "result": "57.3 ± 8.2", "unit": "ng/mL"},
      {"measurement": "Day-night profile: mean blood glucose", "setting": "Male Zucker fa/fa rats [4]; Zucker rats, day 16, 11.00 p.m.", "result": "14.80 ± 1.46", "unit": "mmol/L"},
      {"measurement": "Day-night profile: plasma insulin", "setting": "Male Zucker fa/fa rats [4]; Zucker rats, day 17, 05.00 a.m.", "result": "76.3 ± 8.6", "unit": "ng/mL"},
      {"measurement": "Day-night profile: mean blood glucose", "setting": "Male Zucker fa/fa rats [4]; Zucker rats, day 17, 11.00 a.m.", "result": "7.66 ± 1.22", "unit": "mmol/L"},
      {"measurement": "Increase of morning blood glucose", "setting": "Male Zucker fa/fa rats [4]; Zucker rats, within two days of therapy", "result": "about 1.5 mmol/l"},
      {"measurement": "Increase of insulin output", "setting": "Male Zucker fa/fa rats [4]; obese Zucker rat, subchronic treatment, total daily insulin secretion", "result": 27, "unit": "%"}
    ]},
    {"compound": "Pituitary adenylate cyclase activating polypeptide 27", "values": [
      {"measurement": "Cleavage, human plasma +P32/98", "setting": "[1]", "result": "ø"}
    ]},
    {"compound": "Somatostatin 14", "values": [
      {"measurement": "Km", "setting": "porcine DP IV", "result": 42, "unit": "µM"}
    ]}
  ]
}
